How the values were obtained:
[1] = test system: chronic unpredictable stress (CUS) model in rats; test: Depression-like behaviors overall in CUS model in rats (forced swimming, sucrose preference, autonomous mobility); type: in vivo; conditions: doses of 30 and 60 mg/kg
Text: The chronic unpredictable stress model is usually used as a depression model. The experimental method is as follows. […] These stressors were randomly scheduled over a one-week period and repeated throughout the 23-day experiment. The non-stress control group was housed under normal conditions. Time: between 9:00 a.m. and 2:00 p.m. Since Day 15, the animals in each group were daily intragastrically administered with the subject medicament and double distilled water based on body weight (blank group and CUS model group) respectively, 60 minutes before the stress. Imipramine (intraperitoneally, IP) was adopted as a positive control. Behavior and sleep electroencephalogram analyses were carried out on Day 22-23 of the stress. On Day 21, 60 minutes after the final administration, a sucrose solution intake test was carried out and sleep electroencephalogram was recorded simultaneously. On Day 22, EPM and forced swimming tests were carried out. Result 1: […]

[2] = test system: chronic unpredictable stress (CUS) model in rats; test: Elevated plus-maze (EPM) anxiety test in CUS model in rats; type: in vivo; conditions: for anti-anxiety-like effect: doses of 30 and 60 mg/kg
Procedure: (§1) The chronic unpredictable stress model is usually used as a depression model. The experimental method is as follows. Stimulation includes forced swimming (10° C., 6 min), tail clamping (1 cm from the tail tip, 1 min), water deprivation (24 h), fasting (24 h), isolated housing (24 h), tail suspension (1 h), immobility (2 h), high-speed horizontal oscillation (120 times/min, 1 h), foot shock for 45 minutes (mean 1 mA, time course 1 s, once/min). These stressors were randomly scheduled over a one-week period and repeated throughout the 23-day experiment. The non-stress control group was housed under normal conditions. Time: between 9:00 a.m. and 2:00 p.m. Since Day 15, the animals in each group were daily intragastrically administered with the subject medicament and double distilled water based on body weight (blank group and CUS model group) respectively, 60 minutes before the stress. […] Behavior and sleep electroencephalogram analyses were carried out on Day 22-23 of the stress. On Day 21, 60 minutes after the final administration, a sucrose solution intake test was carried out and sleep electroencephalogram was recorded simultaneously. On Day 22, EPM and forced swimming tests were carried out.

[3] = test system: chronic unpredictable stress (CUS) model in rats; test: Sucrose solution preference in CUS model in rats; type: in vivo; conditions: 7 days
Procedure: as §1

GSK-3β = GSK-3β (Homo sapiens, UniProt P49841); test: GSK-3β activity assay (Z′-LYTE); type: biochemical; conditions: n = 3; read-out: Mean EC50 in the inhibition of GSK-3β activity
Sequence of GSK-3β (P49841 whole entry): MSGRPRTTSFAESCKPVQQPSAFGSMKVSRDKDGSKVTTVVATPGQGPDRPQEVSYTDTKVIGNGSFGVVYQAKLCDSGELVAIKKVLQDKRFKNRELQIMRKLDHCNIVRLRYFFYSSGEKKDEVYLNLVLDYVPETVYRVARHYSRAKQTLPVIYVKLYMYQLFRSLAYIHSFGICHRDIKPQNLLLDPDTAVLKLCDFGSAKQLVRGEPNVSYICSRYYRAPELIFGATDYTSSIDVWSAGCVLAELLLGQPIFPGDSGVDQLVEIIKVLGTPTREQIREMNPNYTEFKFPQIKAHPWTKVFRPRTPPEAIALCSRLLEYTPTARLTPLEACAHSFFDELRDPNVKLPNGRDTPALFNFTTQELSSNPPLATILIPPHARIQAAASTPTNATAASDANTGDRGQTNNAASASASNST
Procedure: The GSK-3β phosphorylation level was determined by using a Z′-LYTE assay (Life Technologies). The assay was performed in a 384-well plate. The wells of the testing plate were divided into blank control wells (without the enzyme), enzyme control wells (without the testing substance), and testing wells (with the enzyme and the testing substance at various concentrations). The inhibition rate of the testing substance is expressed as: inhibition %=(E−S)/(E−B)×100, wherein E is the average emission ratio of enzyme control wells; B is the average emission ratio of blank control wells; S is the emission ratio of the testing sample wells. The median effective concentration of each compound (EC50 μM) was calculated by using the resultant inhibition rate of each sample at various concentrations.

[4] = test system: chronic unpredictable stress (CUS) model in rats; test: Forced swimming test in chronic unpredictable stress (CUS) model in rats; type: in vivo; conditions: 7 days
Procedure: as §1

[5] = test system: chronic unpredictable stress (CUS) model in rats; test: Autonomous movement in CUS model in rats; type: in vivo; conditions: 7 days
Procedure: as §1

[6] = Serum AST and ALT in mice after 14 days of intragastric administration; type: in vivo; conditions: mouse, in vivo, 60 mg/kg/day
Procedure: Blood was collected from epicanthal, stood at room temperature for about 2 hours, and centrifuged for 12 minutes at 3000 r/min after coagulation. The serum was removed and centrifuged again. Alanine transaminase (ALT) and aspartate transaminase (AST) levels were determined

12-acetoxyberbamine [reference compound]
amelioration effect on depression-like behaviors [1]: no amelioration effect | Percentage of entries into open arms relative to total entries into arms ([2]; 30 mg/kg intragastric daily): 38.2 ± 1.8% | Percentage of residence time in open arms ([2]; 30 mg/kg intragastric daily): 41.9 ± 3.7% | Percentage of entries into open arms relative to total entries into arms ([2]; 60 mg/kg intragastric daily): 36.8 ± 1.6% | Percentage of residence time in open arms ([2]; 60 mg/kg intragastric daily): 43.3 ± 3.4% | anti-anxiety-like effect [2]: no anti-anxiety-like effect | Sucrose solution preference ([3]; 30 mg/kg intragastric daily): 54.29 ± 3.74% | Sucrose solution preference ([3]; 60 mg/kg intragastric daily): 53.34 ± 3.04% | EC50 (GSK-3β): > 10000 nM | Forced swimming Immobility time ([4]; 30 mg/kg intragastric daily): 179.2 ± 6.6 s | Forced swimming Immobility time ([4]; 60 mg/kg intragastric daily): 169.9 ± 7.4 s | Autonomous movement Distance ([5]; 30 mg/kg intragastric daily): 984.41 ± 542.67 mm | Autonomous movement Speed ([5]; 30 mg/kg intragastric daily): 3.28 ± 1.35 mm/second | Autonomous movement Distance ([5]; 60 mg/kg intragastric daily): 1135.49 ± 575.54 mm | Autonomous movement Speed ([5]; 60 mg/kg intragastric daily): 3.78 ± 1.46 mm/second

CCCOc1c(OC)cc2c3c1Oc1cc4c(cc1OC)CCN(C)C4Cc1ccc(cc1)Oc1cc(ccc1OC)CC3N(C)CC2 (stereo not shown) [Compound 6, 7-propoxy fangchinoline]
Percentage of entries into open arms relative to total entries into arms ([2]; 7.5 mg/kg intragastric daily): 47.0 ± 2.6 % | Percentage of residence time in open arms ([2]; 7.5 mg/kg intragastric daily): 59.4 ± 3.3^##,$$ % | Percentage of entries into open arms relative to total entries into arms ([2]; 15 mg/kg intragastric daily): 50.5 ± 3.2 % | Percentage of residence time in open arms ([2]; 15 mg/kg intragastric daily): 64.1 ± 3.6^##,$$ % | Percentage of entries into open arms relative to total entries into arms ([2]; 30 mg/kg intragastric daily): 57.3 ± 4.6^##,$$ % | Percentage of residence time in open arms ([2]; 30 mg/kg intragastric daily): 66.0 ± 4.2^##,$$ % | Sucrose solution preference ([3]; 7.5 mg/kg intragastric daily): 79.45 ± 3.3 % | Sucrose solution preference ([3]; 15 mg/kg intragastric daily): 85.5 ± 3.6^##,$$ % | Sucrose solution preference ([3]; 30 mg/kg intragastric daily): 90.4 ± 4.3^##,$$ % | EC50 (GSK-3β): 1680 nM | melting point: 174.8 to 176.3 °C | Autonomous movement Distance ([5]; 7.5 mg/kg intragastric daily): 8940.78 ± 714.35^##,$$ mm | Autonomous movement Speed ([5]; 7.5 mg/kg intragastric daily): 29.80 ± 2.64^##,$$ mm/second | Autonomous movement Distance ([5]; 15 mg/kg intragastric daily): 11574.92 ± 732.36^##,$$ mm | Autonomous movement Speed ([5]; 15 mg/kg intragastric daily): 38.58 ± 3.02^##,$$ mm/second | Autonomous movement Distance ([5]; 30 mg/kg intragastric daily): 12566.27 ± 764.42^##,$$ mm | Autonomous movement Speed ([5]; 30 mg/kg intragastric daily): 41.89 ± 4.36^##,$$ mm/second | ALT [6]: 92.3 ± 21.2 U/L | AST [6]: 99.4 ± 21.1 U/L | AST/ALT [6]: 1.08 ± 0.27

12-(4-ethoxy)-butoxyberbamine [reference compound]
amelioration effect on depression-like behaviors [1]: no amelioration effect | Percentage of entries into open arms relative to total entries into arms ([2]; 30 mg/kg intragastric daily): 36.6 ± 1.7% | Percentage of residence time in open arms ([2]; 30 mg/kg intragastric daily): 40.1 ± 4.5% | Percentage of entries into open arms relative to total entries into arms ([2]; 60 mg/kg intragastric daily): 37.2 ± 1.3% | Percentage of residence time in open arms ([2]; 60 mg/kg intragastric daily): 39.2 ± 3.5% | anti-anxiety-like effect [2]: no anti-anxiety-like effect | Sucrose solution preference ([3]; 30 mg/kg intragastric daily): 54.19 ± 4.45% | Sucrose solution preference ([3]; 60 mg/kg intragastric daily): 53.27 ± 3.55% | EC50 (GSK-3β): > 10000 nM | Forced swimming Immobility time ([4]; 30 mg/kg intragastric daily): 179.5 ± 6.3 s | Forced swimming Immobility time ([4]; 60 mg/kg intragastric daily): 175.3 ± 8.4 s | Autonomous movement Distance ([5]; 30 mg/kg intragastric daily): 1367.52 ± 683.88 mm | Autonomous movement Speed ([5]; 30 mg/kg intragastric daily): 4.56 ± 1.74 mm/second | Autonomous movement Distance ([5]; 60 mg/kg intragastric daily): 935.73 ± 586.51 mm | Autonomous movement Speed ([5]; 60 mg/kg intragastric daily): 3.12 ± 1.31 mm/second

COc1cc(Br)c2cc1Oc1ccc(cc1)CC1c3cc(c(OC)cc3CCN1C)Oc1c(OC)c(OC)c(Br)c3c1C(C2)N(C)CC3 (stereo not shown) [Compound 2, 5,14-dibromo-7-methoxy fangchinoline]
Percentage of entries into open arms relative to total entries into arms ([2]; 7.5 mg/kg intragastric daily): 45.1 ± 3.8 % | Percentage of residence time in open arms ([2]; 7.5 mg/kg intragastric daily): 56.5 ± 3.0^##,$$ % | Percentage of entries into open arms relative to total entries into arms ([2]; 15 mg/kg intragastric daily): 49.7 ± 4.0 % | Percentage of residence time in open arms ([2]; 15 mg/kg intragastric daily): 63.6 ± 4.1^##,$$ % | Percentage of entries into open arms relative to total entries into arms ([2]; 30 mg/kg intragastric daily): 56.2 ± 5.3^##,$$ % | Percentage of residence time in open arms ([2]; 30 mg/kg intragastric daily): 64.5 ± 3.6^##,$$ % | Sucrose solution preference ([3]; 7.5 mg/kg intragastric daily): 72.5 ± 3.0 % | Sucrose solution preference ([3]; 15 mg/kg intragastric daily): 89.0 ± 4.6^##,$$ % | Sucrose solution preference ([3]; 30 mg/kg intragastric daily): 88.5 ± 3.1^##,$$ % | EC50 (GSK-3β): 2010 nM | melting point: 187 to 189 °C | Autonomous movement Distance ([5]; 7.5 mg/kg intragastric daily): 9031.41 ± 639.33^##,$$ mm | Autonomous movement Speed ([5]; 7.5 mg/kg intragastric daily): 30.10 ± 3.88^##,$$ mm/second | Autonomous movement Distance ([5]; 15 mg/kg intragastric daily): 10116.74 ± 746.48^##,$$ mm | Autonomous movement Speed ([5]; 15 mg/kg intragastric daily): 33.72 ± 4.02^##,$$ mm/second | Autonomous movement Distance ([5]; 30 mg/kg intragastric daily): 12062.32 ± 903.42^##,$$ mm | Autonomous movement Speed ([5]; 30 mg/kg intragastric daily): 40.21 ± 5.36^##,$$ mm/second | ALT [6]: 87.2 ± 24.7 U/L | AST [6]: 108.4 ± 17.4 U/L | AST/ALT [6]: 1.24 ± 0.26

COc1ccc2cc1Oc1ccc(cc1)CC1c3cc(c(OC)cc3CCN1C)Oc1c(OC)c(OC)c(OC)c3c1C(C2)N(C)CC3 (stereo not shown) [5,7-dimethoxy-fangchinoline, reference compound]
amelioration effect on depression-like behaviors [1]: no amelioration effect | Percentage of entries into open arms relative to total entries into arms ([2]; 30 mg/kg intragastric daily): 38.9 ± 1.8% | Percentage of residence time in open arms ([2]; 30 mg/kg intragastric daily): 43.2 ± 4.1% | Percentage of entries into open arms relative to total entries into arms ([2]; 60 mg/kg intragastric daily): 37.2 ± 1.4% | Percentage of residence time in open arms ([2]; 60 mg/kg intragastric daily): 42.8 ± 4.8% | anti-anxiety-like effect [2]: no anti-anxiety-like effect | Sucrose solution preference ([3]; 30 mg/kg intragastric daily): 53.7 ± 4.8% | Sucrose solution preference ([3]; 60 mg/kg intragastric daily): 55.3 ± 4.2% | EC50 (GSK-3β): > 10000 nM | Autonomous movement Distance ([5]; 30 mg/kg intragastric daily): 1189.64 ± 315.84 mm | Autonomous movement Speed ([5]; 30 mg/kg intragastric daily): 3.97 ± 1.48 mm/second | Autonomous movement Distance ([5]; 60 mg/kg intragastric daily): 936.47 ± 366.32 mm | Autonomous movement Speed ([5]; 60 mg/kg intragastric daily): 3.12 ± 1.42 mm/second

CCCCOc1c(OC)cc2c3c1Oc1cc4c(cc1OC)CCN(C)C4Cc1ccc(cc1)Oc1cc(ccc1OC)CC3N(C)CC2 (stereo not shown) [Compound 7, 7-butoxy fangchinoline]
Percentage of entries into open arms relative to total entries into arms ([2]; 7.5 mg/kg intragastric daily): 43.4 ± 2.6 % | Percentage of residence time in open arms ([2]; 7.5 mg/kg intragastric daily): 54.7 ± 4.1^##,$$ % | Percentage of entries into open arms relative to total entries into arms ([2]; 15 mg/kg intragastric daily): 47.9 ± 4.0 % | Percentage of residence time in open arms ([2]; 15 mg/kg intragastric daily): 62.1 ± 3.4^##,$$ % | Percentage of entries into open arms relative to total entries into arms ([2]; 30 mg/kg intragastric daily): 54.3 ± 5.6^##,$ % | Percentage of residence time in open arms ([2]; 30 mg/kg intragastric daily): 61.5 ± 3.0^##,$$ % | Sucrose solution preference ([3]; 7.5 mg/kg intragastric daily): 70.7 ± 4.1 % | Sucrose solution preference ([3]; 15 mg/kg intragastric daily): 87.1 ± 3.5 % | Sucrose solution preference ([3]; 30 mg/kg intragastric daily): 86.3 ± 3.4^##,$$ % | EC50 (GSK-3β): 2330 nM | melting point: 155 to 156 °C | Autonomous movement Distance ([5]; 7.5 mg/kg intragastric daily): 8823.36 ± 673.14^##,$$ mm | Autonomous movement Speed ([5]; 7.5 mg/kg intragastric daily): 29.41 ± 2.64^##,$$ mm/second | Autonomous movement Distance ([5]; 15 mg/kg intragastric daily): 9586.43 ± 756.75^##,$$ mm | Autonomous movement Speed ([5]; 15 mg/kg intragastric daily): 31.95 ± 4.02^##,$$ mm/second | Autonomous movement Distance ([5]; 30 mg/kg intragastric daily): 11768.25 ± 903.41^##,$$ mm | Autonomous movement Speed ([5]; 30 mg/kg intragastric daily): 39.23 ± 5.36^##,$$ mm/second | ALT [6]: 82.4 ± 17.9 U/L | AST [6]: 93.6 ± 17.8 U/L | AST/ALT [6]: 1.14 ± 0.20

From patent US9169268B2, “Use of 7-alkoxy fangchinoline compounds in preventing, alleviating and/or treating depression” (Peking University, priority 2012, dated 2015)
